This assay concerns the target T1, inactive SHP2 catalytic domain Loopmut (K364E) (Homo sapiens, UniProt Q06124, C459S/K364E).
T1 construct: SHP2 K364E (Loopmut); 219-528 + C459S; His6 (N); made in house; host or cells: E. coli BL21 (DE3)
T1 sequence (Q06124 219-528 K364E/C459S): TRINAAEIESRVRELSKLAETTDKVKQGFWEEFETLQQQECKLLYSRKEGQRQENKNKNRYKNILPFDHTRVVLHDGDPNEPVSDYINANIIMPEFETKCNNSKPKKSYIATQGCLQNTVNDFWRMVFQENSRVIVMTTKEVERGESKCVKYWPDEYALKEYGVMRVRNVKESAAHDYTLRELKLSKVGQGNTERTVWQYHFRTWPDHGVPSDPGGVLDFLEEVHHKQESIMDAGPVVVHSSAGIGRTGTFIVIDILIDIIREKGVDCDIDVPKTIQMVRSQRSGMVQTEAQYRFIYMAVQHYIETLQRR
Briefly: Fluorescence polarization titrations, SHP2 Loopmut. It counts as binding. The following applies: competitive FP titration vs CF-ppIRS1 100 nM, protein fixed; n = 3 technical replicates. The source says: The two SH2 domains of PI3KR1 (UniProt P27986; nSH2: 321−433 cSH2: 614–724) were cloned from HEK293T cDNA pool, and subsequently ligated into a modified pET vector encoding maltose binding protein (MBP) tag on the N-terminal and a hexa-His tag on the C-terminal end of the construct. Similarly, the catalytic, tyrosine phosphatase domains of PTPRε (P23469 first domain: 107–399) and PTP1B (P18031; 1–229) were cloned from a HEK293T cDNA pool, and inserted into a pBH4 vector encoding an N-terminal His6 tag (for the final binding experiments, an MBP-tagged version of PTPRε was employed). […] Surface mutants of SHP2 were constructed from the SHP2-C459S plasmid, using the QuickChange protocol. The D425A and H426A catalytic site mutants and all enzymatically active surface mutants were generated similarly, but from the plasmid encoding the wild-type catalytic domain of SHP2. Wild-type C-terminal FLAG-tagged human IRS1 was cloned between HindIII-NotI sites of pcDNA3.1(+) vector (#V79020 Invitrogen, Waltham MA USA). Ser/Ala mutant IRS1 was generated by replacing the region of S616/S636/S666/S736 positions with a cassette carrying S616A/S636A/S666A/S736A mutations. All constructs were validated by complete Sanger sequencing before protein expression and purification. The oligonucleotide sequences used are shown on Supplementary table 4.
Fluorescence polarization (FP) assays were performed as follows: In direct titration experiments, protein concentration was varied in an 1/2 or 2/3 dilution series (90 µl protein+ 45 µl mix), while concentration of the reporter peptide (CF-ppIRS1) was kept constant at 100 nM. In competitive titrations, the labelled CF-ppIRS1 peptide and protein were both fixed (at 50–80% saturation) and the unlabelled competitor peptide concentration was varied. Fluorescence polarization was always measured in triplicates, on black Corning low volume round bottom 384-well plates (with 10 ul volumes), using a BioTek Cytatation 5 reader, with the green fluorescent protein (GFP) cube filter set (ex: 485/20, em: 528/20, gain: 50, height: 7.5). Fluorescence polarization data was evaluated on Origin 2018. The dissociation constants (Kd) were determined by using the appropriate quadratic and cubic equations inserted as a user-defined function and applying nonlinear fit until convergence. The fitting formulae are shown at Supplementary note 1. Kd ratio distributions for Fig. 6 were calculated using a Monte-Carlo approach (Supplementary note 2).
Supplementary note 1. Curve fitting of fluorescence polarization (FP) measurements.
To evaluate polarization values from direct and competitive titrations, we used the following fitting formulae in Origin 2018, as detailed below.
Direct titration curves were fitted according to the following formula: […]
Where Imin is the minimal anisotropy, Imax is the (asymptotically estimated) maximal intensity. K0 is the starting concentration of the protein, while T0 is the (fixed) concentration of the labelled peptide and Kd is the dissociation constant.
Competitive titration curves were fitted with a different formula (In addition to those defined above, constants KdT KdB B0 T0 and D0 here refer to the Kd derived from the direct titration, the unknown Kd of the analyte, the labelled peptide concentration, the competitor peptide concentration as well as the protein concentration, respectively).
The ± sign refers to two different scenarios, depending on the sign of discriminant (KdT > KdB or […]). For unknown analytes, the choice of sign is not arbitrary, as the fitting will not converge unless the appropriate formula is chosen: […]
Where A, B and C correspond to the following expressions: […]

Data on six molecules can be found in PMC9481563, “Structural insights into the pSer/pThr dependent regulation of the SHP2 tyrosine phosphatase in insulin and CD28 signaling” (Nature Communications, 2022).

Turning to `CSCC[C@H](NC(=O)[C@@H]1CCCN1C(=O)[C@H](CCSC)NC(=O)[C@H](Cc1ccc(OP(=O)(O)O)cc1)NC(=O)[C@H](CC(=O)O)NC(=O)CNC(=O)[C@H](CO)NC(=O)CNC(=O)[C@H](CCCCN)NC(=O)[C@H](CCCNC(=N)N)NC(=O)CN)C(=O)N[C@@H](COP(=O)(O)O)C(=O)N1CCC[C@H]1C(=O)N[C@@H](CCCCN)C(=O)N[C@@H](CO)C(=O)O` [ppIRS1], the dissociation constant Kd (usually the concentration at which binding is half-saturated) is 3.01 ± 0.42 µM and the “Kd (competitive titration)” value is reported as “bound stronger”.

Turning to `CSCC[C@H](NC(=O)[C@@H]1CCCN1C(=O)[C@H](CCSC)NC(=O)[C@H](Cc1ccc(OP(=O)(O)O)cc1)NC(=O)[C@H](CC(=O)O)NC(=O)CNC(=O)[C@H](CO)NC(=O)CNC(=O)[C@H](CCCCN)NC(=O)[C@H](CCCNC(=N)N)NC(=O)CN)C(=O)N[C@@H](CO)C(=O)N1CCC[C@H]1C(=O)N[C@@H](CCCCN)C(=O)N[C@@H](CO)C(=O)O` [p0IRS1], the Kd was determined as 23.3 ± 0.9 µM and the “Kd (competitive titration)” value is “bound stronger”.

As to `CSCC[C@H](NC(=O)[C@H](Cc1ccc(OP(=O)(O)O)cc1)NC(=O)[C@H](CC(=O)O)NC(=O)[C@H](CO)NC(=O)[C@H](Cc1c[nH]cn1)NC(=O)[C@H](CC(C)C)NC(=O)[C@H](CC(C)C)NC(=O)[C@H](CCCNC(=N)N)NC(=O)[C@H](CO)NC(=O)[C@@H](N)CCCNC(=N)N)C(=O)N[C@@H](CC(N)=O)C(=O)N[C@@H](CCSC)C(=O)N[C@H](C(=O)N1CCC[C@H]1C(=O)N[C@@H](CCCNC(=N)N)C(=O)N[C@@H](CCCNC(=N)N)C(=O)O)[C@@H](C)OP(=O)(O)O` [ppCD28], the affinity, expressed as Kd, was 6.66 ± 0.38 µM.

For `CSCC[C@H](NC(=O)[C@H](Cc1ccc(OP(=O)(O)O)cc1)NC(=O)[C@H](CC(=O)O)NC(=O)[C@H](CO)NC(=O)[C@H](Cc1c[nH]cn1)NC(=O)[C@H](CC(C)C)NC(=O)[C@H](CC(C)C)NC(=O)[C@H](CCCNC(=N)N)NC(=O)[C@H](CO)NC(=O)[C@@H](N)CCCNC(=N)N)C(=O)N[C@@H](CC(N)=O)C(=O)N[C@@H](CCSC)C(=O)N[C@H](C(=O)N1CCC[C@H]1C(=O)N[C@@H](CCCNC(=N)N)C(=O)N[C@@H](CCCNC(=N)N)C(=O)O)[C@@H](C)O` [p0CD28], the Kd was determined as 20.5 ± 1.53 µM.

Molecule `CC[C@H](C)[C@H](NC(=O)[C@H](CC(N)=O)NC(=O)[C@@H](NC(=O)[C@H](Cc1ccc(OP(=O)(O)O)cc1)NC(=O)[C@H](CCC(=O)O)NC(=O)CNC(=O)[C@@H]1CCCN1C(=O)[C@H](CO)NC(=O)[C@H](CCCCN)NC(=O)[C@@H]1CCCN1C(=O)[C@@H](N)CCC(=O)O)C(C)C)C(=O)N[C@@H](CCC(=O)O)C(=O)N[C@@H](Cc1ccccc1)C(=O)O` [p0SRev-IRS1] had a dissociation constant (Kd) of 7.73 ± 1.08 µM.

As to `CC[C@H](C)[C@H](NC(=O)[C@H](CC(N)=O)NC(=O)[C@@H](NC(=O)[C@H](Cc1ccc(OP(=O)(O)O)cc1)NC(=O)[C@H](CCC(=O)O)NC(=O)CNC(=O)[C@@H]1CCCN1C(=O)[C@H](COP(=O)(O)O)NC(=O)[C@H](CCCCN)NC(=O)[C@@H]1CCCN1C(=O)[C@@H](N)CCC(=O)O)C(C)C)C(=O)N[C@@H](CCC(=O)O)C(=O)N[C@@H](Cc1ccccc1)C(=O)O` [ppSRev-IRS1], binding was characterised by a dissociation constant (Kd) of 0.99 ± 0.07 µM.
